According to patent US7591979B2 (priority 2003, dated 2009):
Several values for one entry are separate records, joined by “and”; a condition that tells them apart may be missing. Equal values may be shown once.

System: naturally-occurring algae from water samples of the Clinch River
Assay type: cell-based, naturally occurring freshwater algae

## COP(=S)(OC)Oc1ccc([N+](=O)[O-])cc1 [MPt, Methyl Parathion]
  Percentage (%) decrease in photochemical yield: −5.41% and −7.80% and −3.19%
